Earlier results, collected in patent US20250255875A1, “BIFUNCTIONAL CHIMERIC MOLECULES FOR LABELING OF KINASES WITH TARGET BINDING MOIETIES AND METHODS OF USE THEREOF” (The Brigham and Women's Hospital, Inc., priority 2022, published 2025).

How the values were obtained:
MERS-COV = settings: in vitro
Recombinant PK… (PKCζ) = target: T1, Recombinant PK… (PKCζ) (Homo sapiens, UniProt Q05513)
T1 sequence (Q05513 1-592): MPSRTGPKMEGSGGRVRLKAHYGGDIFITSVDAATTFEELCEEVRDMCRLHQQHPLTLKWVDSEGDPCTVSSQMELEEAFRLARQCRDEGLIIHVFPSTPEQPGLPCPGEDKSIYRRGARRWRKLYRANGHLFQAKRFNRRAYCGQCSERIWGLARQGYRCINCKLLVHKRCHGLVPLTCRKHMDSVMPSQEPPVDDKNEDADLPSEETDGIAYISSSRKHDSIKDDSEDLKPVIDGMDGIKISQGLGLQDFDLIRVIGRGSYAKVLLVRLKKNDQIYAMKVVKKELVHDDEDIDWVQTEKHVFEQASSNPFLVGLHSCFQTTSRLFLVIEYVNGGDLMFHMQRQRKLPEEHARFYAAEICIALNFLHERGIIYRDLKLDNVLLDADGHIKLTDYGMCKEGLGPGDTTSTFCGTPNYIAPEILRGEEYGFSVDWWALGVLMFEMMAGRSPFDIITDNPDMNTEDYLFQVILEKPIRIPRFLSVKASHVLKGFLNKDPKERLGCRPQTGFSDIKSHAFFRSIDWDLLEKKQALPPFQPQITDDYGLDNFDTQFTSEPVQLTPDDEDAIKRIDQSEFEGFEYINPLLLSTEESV

p38α MAPK = p38α MAPK (Homo sapiens, UniProt Q16539)
Chain of p38α MAPK (Q16539 whole entry): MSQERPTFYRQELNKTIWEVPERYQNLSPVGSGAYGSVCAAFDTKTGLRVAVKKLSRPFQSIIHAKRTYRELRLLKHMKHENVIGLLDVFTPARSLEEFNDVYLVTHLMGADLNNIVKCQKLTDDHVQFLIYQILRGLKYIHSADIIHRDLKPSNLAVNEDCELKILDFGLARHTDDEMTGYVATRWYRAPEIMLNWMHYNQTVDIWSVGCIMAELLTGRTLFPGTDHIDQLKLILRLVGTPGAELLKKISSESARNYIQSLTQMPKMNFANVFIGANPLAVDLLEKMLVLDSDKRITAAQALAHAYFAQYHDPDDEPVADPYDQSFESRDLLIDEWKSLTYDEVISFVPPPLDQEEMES

[1] = test system: breast, prostate, colon and pancreatic carcinoma xenografts; settings: in vivo
c-Met = c-Met (Homo sapiens, UniProt P08581)
Chain of c-Met (P08581 25-1390): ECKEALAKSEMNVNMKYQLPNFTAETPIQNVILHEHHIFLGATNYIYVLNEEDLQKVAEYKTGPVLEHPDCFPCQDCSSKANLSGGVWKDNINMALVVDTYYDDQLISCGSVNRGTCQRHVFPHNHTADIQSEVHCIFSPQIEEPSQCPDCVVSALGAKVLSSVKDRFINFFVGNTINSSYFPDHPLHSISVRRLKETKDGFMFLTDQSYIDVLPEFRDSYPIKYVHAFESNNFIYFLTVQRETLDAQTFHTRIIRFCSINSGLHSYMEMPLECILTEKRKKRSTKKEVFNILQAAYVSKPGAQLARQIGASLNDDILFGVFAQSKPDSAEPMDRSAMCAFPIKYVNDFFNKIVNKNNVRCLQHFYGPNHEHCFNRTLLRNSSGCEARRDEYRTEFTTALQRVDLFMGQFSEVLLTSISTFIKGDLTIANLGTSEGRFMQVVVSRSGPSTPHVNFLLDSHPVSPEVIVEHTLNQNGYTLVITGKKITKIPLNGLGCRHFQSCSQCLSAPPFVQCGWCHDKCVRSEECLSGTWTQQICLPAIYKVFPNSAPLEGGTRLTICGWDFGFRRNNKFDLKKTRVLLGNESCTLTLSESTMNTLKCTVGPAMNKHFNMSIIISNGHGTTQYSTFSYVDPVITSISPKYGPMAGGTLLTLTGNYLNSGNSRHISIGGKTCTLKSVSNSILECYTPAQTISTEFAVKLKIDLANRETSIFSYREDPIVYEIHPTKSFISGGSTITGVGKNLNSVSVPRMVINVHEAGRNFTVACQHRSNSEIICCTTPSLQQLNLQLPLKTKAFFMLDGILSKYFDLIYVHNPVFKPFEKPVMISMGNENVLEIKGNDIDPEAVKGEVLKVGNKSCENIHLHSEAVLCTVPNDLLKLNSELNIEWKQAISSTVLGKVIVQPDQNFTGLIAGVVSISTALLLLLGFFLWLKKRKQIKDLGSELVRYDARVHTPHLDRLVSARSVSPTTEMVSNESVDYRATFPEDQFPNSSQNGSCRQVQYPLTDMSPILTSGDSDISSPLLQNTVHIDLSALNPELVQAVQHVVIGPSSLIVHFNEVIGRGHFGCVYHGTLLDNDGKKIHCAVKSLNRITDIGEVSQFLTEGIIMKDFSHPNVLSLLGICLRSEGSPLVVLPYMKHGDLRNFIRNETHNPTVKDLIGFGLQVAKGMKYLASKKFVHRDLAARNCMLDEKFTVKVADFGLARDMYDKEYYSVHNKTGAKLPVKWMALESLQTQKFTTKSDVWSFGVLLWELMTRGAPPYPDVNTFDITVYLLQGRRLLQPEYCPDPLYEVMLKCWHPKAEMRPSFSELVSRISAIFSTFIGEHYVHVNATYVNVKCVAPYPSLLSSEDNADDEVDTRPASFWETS

Lyn kinase = settings: knockout mice
mutant EGFR = settings: 0.01-10 uM
NF-kB = settings: mice
[2] = not given; remark: listed apart in the source

Row | Structure (SMILES) | reporter gene assay % inhibu at 5 μM (NF-…B Pathway) | cell-free assay % inhibu at 62.5 μM (Recombinant PK… (PKCζ)) | further results
1 | CO[C@H]1C[C@@H]2CC[C@@H](C)[C@@](O)(O2)C(=O)C(=O)N2CCCC[C@H]2C(=O)O[C@H]([C@H](C)C[C@@H]2CC[C@@H](O)[C@H](OC)C2)CC(=O)[C@H](C)/C=C(\C)[C@@H](O)[C@@H](OC)C(=O)[C@H](C)C[C@H](C)/C=C/C=C/C=C/1C [Sirolimus] | – | – | MERS-COV infection of Huh7 cells (MERS-COV): inhibits MERS-COV infection
2 | Cc1ccc(N2N=C(C(C)(C)C)CC2c2ccc(O)cc2)cc1 (stereo not drawn) [1e] | 62.9% | – | –
3 | O=C(NOCC(O)CO)c1ccc(F)c(F)c1Nc1ccc(I)cc1F (stereo not drawn) [Compound 35] | – | – | Sol (pH 6.5): 255, μg/mL
4 | Cc1cccc(N2N=C(C(C)(C)C)CC2c2ccc(O)cc2)c1 (stereo not drawn) [1k] | 73.7% | 91.7% | –
5 | CC(C)(C)C1=NN(c2ccc(Cl)cc2)C(c2ccc(O)cc2)C1 (stereo not drawn) [1a] | 75.1% | – | –
6 | CC(C)(C)C1=NN(c2ccc(Br)cc2)C(c2ccc(O)cc2)C1 (stereo not drawn) [1c] | 58.4% | 93.2% | –
7 | O=C1c2ccc(Nc3ccc(F)cc3F)cc2CCc2ccc(OC[C@H](O)CO)cc21 [Skepinone-B] | – | – | residence time (p38α MAPK): 150 s
8 | O=C1NC(=O)[C@@H](c2cn3c4c(cccc24)CCC3)[C@@H]1c1c[nH]c2ccccc12 [Tivantinib, tivantinib] | – | – | growth of carcinoma xenografts [1]: inhibition of growth; selectivity for c-Met over other kinases tested (c-Met): 10-100 time
9 | Cc1cccc(Oc2cnc(=O)[nH]c2)c1 [Tolimidone, tolimidone] | – | – | glucose lowering when Lyn kinase was absent (Lyn kinase): did not lower glucose
10 | CC(C)(C)C1=NN(c2ccc(F)cc2)C(c2ccc(O)cc2)C1 (stereo not drawn) [1b] | 63.8% | 95.5% | –
11 | O=C(Nc1nccs1)C(c1cc(F)ccc1O)N1Cc2ccc(-c3ccc(N4CCNCC4)cc3)cc2C1=O (stereo not drawn) [JBJ-04-125-02] | – | – | EGFR phosphorylation (mutant EGFR): inhibited EGFR phosphorylation
12 | CC(C)(C)C1=NN(c2cccc(C(F)(F)F)c2)C(c2ccc(O)cc2)C1 (stereo not drawn) [1j] | 89.7% | 96.1% | –
13 | Cc1ccc2nc(NCCN)c3ncc(C)n3c2c1.Cl [BMS-345541] | – | – | activity against LPS-induced NF-kB activation (NF-kB): active
14 | CC(C)(C)C1=NN(c2cccc(Cl)c2)C(c2ccc(O)cc2)C1 (stereo not drawn) [1h] | 64.6% | 96.8% | –
15 | CC(=O)Nc1cccc(-n2c(=O)n(C3CC3)c(=O)c3c(Nc4ccc(I)cc4F)n(C)c(=O)c(C)c32)c1 [Trametinib] | – | – | Absorption/distribution of an oral dose of tablet [2]: 72%
